In ChEMBL document CHEMBL3046161, “Synthesis of potential antitubercular and antimicrobial s-triazine-based scaffolds via Suzuki cross-coupling reaction” (2013):
Values after ≈ are worked out from the molar mass of the structure shown.

Tests used:
Format in all cases: functional
[1] = tested on: Salmonella typhi; assay: Antibacterial activity against Salmonella enterica subsp. enterica serovar Typhi MTCC 733 assessed as growth inhibition at 3.12 to 50 ug/mL after 24 hr by agar disk diffusion method
[2] = tested on: Klebsiella pneumoniae; assay: Antibacterial activity against Klebsiella pneumoniae MTCC 109 assessed as growth inhibition at 3.12 to 50 ug/mL after 24 hr by agar disk diffusion method
[3] = tested on: Klebsiella pneumoniae; assay: Antibacterial activity against Klebsiella pneumoniae MTCC 109 assessed as growth inhibition after 24 hr by agar streak dilution method; details: MTCC 109, 24 h
[4] = tested on: Salmonella typhi; assay: Antibacterial activity against Salmonella enterica subsp. enterica serovar Typhi MTCC 733 assessed as growth inhibition after 24 hr by agar streak dilution method; details: MTCC 733, 24 h
[5] = tested on: Pseudomonas aeruginosa; assay: Antibacterial activity against Pseudomonas aeruginosa MTCC 741 assessed as growth inhibition after 24 hr by agar streak dilution method; details: MTCC 741, 24 h
[6] = tested on: Escherichia coli; assay: Antibacterial activity against Escherichia coli MTCC 739 assessed as growth inhibition after 24 hr by agar streak dilution method; details: MTCC 739, 24 h
[7] = tested on: Bacillus cereus; assay: Antibacterial activity against Bacillus cereus MTCC 430 assessed as growth inhibition after 24 hr by agar streak dilution method; details: MTCC 430, 24 h
[8] = tested on: Staphylococcus aureus; assay: Antibacterial activity against Staphylococcus aureus MTCC 96 assessed as growth inhibition after 24 hr by agar streak dilution method; details: MTCC 96, 24 h
[9] = tested on: Mycobacterium tuberculosis; assay: Antimycobacterial activity against Mycobacterium tuberculosis H37Rv assessed as growth inhibition at MIC after 12 to 28 days by Lowenstein and Jensen agar dilution method
[10] = tested on: Mycobacterium tuberculosis; assay: Antimycobacterial activity against Mycobacterium tuberculosis H37Rv assessed as growth inhibition after 12 to 28 days by Lowenstein and Jensen agar dilution method
[11] = tested on: Mycobacterium tuberculosis; assay: Antimycobacterial activity against Mycobacterium tuberculosis H37Rv assessed as growth inhibition measured within 10 days by BACTEC MGIT method; details: 240 h
[12] = tested on: Candida albicans; assay: Antifungal activity against Candida albicans MTCC 183 assessed as growth inhibition at 3.12 to 50 ug/mL after 24 hr by agar disk diffusion method
[13] = tested on: Aspergillus clavatus; assay: Antifungal activity against Aspergillus clavatus MTCC 1323 assessed as growth inhibition at 3.12 to 50 ug/mL after 24 hr by agar disk diffusion method
[14] = tested on: Aspergillus fumigatus; assay: Antifungal activity against Aspergillus fumigatus MTCC 343 assessed as growth inhibition at 3.12 to 50 ug/mL after 24 hr by agar disk diffusion method
[15] = tested on: Aspergillus niger; assay: Antifungal activity against Aspergillus niger MTCC 282 assessed as growth inhibition at 3.12 to 50 ug/mL after 24 hr by agar disk diffusion method
[16] = tested on: Candida albicans; assay: Antifungal activity against Candida albicans MTCC 183 assessed as growth inhibition after 48 hr by agar streak dilution method; details: MTCC 183, 48 h
[17] = tested on: Aspergillus clavatus; assay: Antifungal activity against Aspergillus clavatus MTCC 1323 assessed as growth inhibition after 48 hr by agar streak dilution method; details: MTCC 1323, 48 h
[18] = tested on: Aspergillus fumigatus; assay: Antifungal activity against Aspergillus fumigatus MTCC 343 assessed as growth inhibition after 48 hr by agar streak dilution method; details: MTCC 343, 48 h
[19] = tested on: Aspergillus niger; assay: Antifungal activity against Aspergillus niger MTCC 282 assessed as growth inhibition after 48 hr by agar streak dilution method; details: MTCC 282, 48 h
[20] = tested on: Shigella flexneri; assay: Antibacterial activity against Shigella flexneri MTCC 1457 assessed as growth inhibition at 3.12 to 50 ug/mL after 24 hr by agar disk diffusion method
[21] = tested on: Proteus vulgaris; assay: Antibacterial activity against Proteus vulgaris MTCC 1771 assessed as growth inhibition at 3.12 to 50 ug/mL after 24 hr by agar disk diffusion method
[22] = tested on: Pseudomonas aeruginosa; assay: Antibacterial activity against Pseudomonas aeruginosa MTCC 741 assessed as growth inhibition at 3.12 to 50 ug/mL after 24 hr by agar disk diffusion method
[23] = tested on: Escherichia coli; assay: Antibacterial activity against Escherichia coli MTCC 739 assessed as growth inhibition at 3.12 to 50 ug/mL after 24 hr by agar disk diffusion method
[24] = tested on: Bacillus cereus; assay: Antibacterial activity against Bacillus cereus MTCC 430 assessed as growth inhibition at 3.12 to 50 ug/mL after 24 hr by agar disk diffusion method
[25] = tested on: Staphylococcus aureus; assay: Antibacterial activity against Staphylococcus aureus MTCC 96 assessed as growth inhibition at 3.12 to 50 ug/mL after 24 hr by agar disk diffusion method
[26] = tested on: Shigella flexneri; assay: Antibacterial activity against Shigella flexneri MTCC 1457 assessed as growth inhibition after 24 hr by agar streak dilution method; details: MTCC 1457, 24 h
[27] = tested on: Proteus vulgaris; assay: Antibacterial activity against Proteus vulgaris MTCC 1771 assessed as growth inhibition after 24 hr by agar streak dilution method; details: MTCC 1771, 24 h

Compound	inhibition zone (IZ) [1] [mm]	inhibition zone (IZ) [2] [mm]	MIC [3] [µg/mL]	MIC [4] [µg/mL]	MIC [5] [µg/mL]	MIC [6] [µg/mL]	MIC [7] [µg/mL]	MIC [8] [µg/mL]	growth inhibition (GI) [9] [%]	MIC [10] [µg/mL]	MIC [11] [µg/mL]	inhibition zone (IZ) [12] [mm]	inhibition zone (IZ) [13] [mm]	inhibition zone (IZ) [14] [mm]	inhibition zone (IZ) [15] [mm]	MIC [16] [µg/mL]	MIC [17] [µg/mL]	MIC [18] [µg/mL]	MIC [19] [µg/mL]	inhibition zone (IZ) [20] [mm]	further results
CC(=O)Nc1ccc2nc(NC(=O)CNc3ccc(-c4nc(N5CC(C)CC(C)C5)nc(N5CC(C)CC(C)C5)n4)cc3)sc2c1 (centres undefined)	17	21	50 (≈ 77.9 µM)	50 (≈ 77.9 µM)	50 (≈ 77.9 µM)	50 (≈ 77.9 µM)	50 (≈ 77.9 µM)	50 (≈ 77.9 µM)	98	50 (≈ 77.9 µM)	> 6.25	22	24	<10	24	25 (≈ 39 µM)	50 (≈ 77.9 µM)	> 50	6.25 (≈ 9.74 µM)	13	inhibition zone (IZ) [21]: 26 mm; inhibition zone (IZ) [22]: 19 mm; inhibition zone (IZ) [23]: 19 mm; inhibition zone (IZ) [24]: 17 mm; inhibition zone (IZ) [25]: 19 mm; MIC [26]: 50 µg/mL (≈ 77.9 µM); MIC [27]: 6.25 µg/mL (≈ 9.74 µM)
CC1CC(C)CN(c2nc(-c3ccc(NCC(=O)Nc4nc5ccc([N+](=O)[O-])cc5s4)cc3)nc(N3CC(C)CC(C)C3)n2)C1 (centres undefined)	19	18	50 (≈ 79.4 µM)	50 (≈ 79.4 µM)	50 (≈ 79.4 µM)	50 (≈ 79.4 µM)	12.5 (≈ 19.8 µM)	12.5 (≈ 19.8 µM)	98	50 (≈ 79.4 µM)	> 6.25	16	28	22	23	50 (≈ 79.4 µM)	25 (≈ 39.7 µM)	50 (≈ 79.4 µM)	12.5 (≈ 19.8 µM)	21	inhibition zone (IZ) [21]: 19 mm; inhibition zone (IZ) [22]: 18 mm; inhibition zone (IZ) [23]: 18 mm; inhibition zone (IZ) [24]: 26 mm; inhibition zone (IZ) [25]: 22 mm; MIC [26]: 50 µg/mL (≈ 79.4 µM); MIC [27]: 50 µg/mL (≈ 79.4 µM)
